Assay results from ChEMBL document CHEMBL6153052, “Development of molecular Trojan horses targeting New Delhi metallo-β-lactamase-1 for the restoration of meropenem susceptibility in drug-resistant bacteria” (Eur J Med Chem, 2025).
In brackets after ≈: the same amount, converted by molar mass. Activity calls are given as the source filed them. The rule behind the calls is not given here.

Assays:
[1] = molecular target: Metallo-beta-lactamase type 2 (Bacteria) (UniProt C7C422); experiment: Inhibition of NDM-1 (unknown origin) using nitrocefin as substrate assessed as residual activity at 64 ug/ml preincubated for 15 mins followed by substrate addition by absorbance based assay relative to control; details: dose 64.0 µg/ml
Sequence of Metallo-beta-lactamase type 2 (Bacteria) (C7C422 whole entry): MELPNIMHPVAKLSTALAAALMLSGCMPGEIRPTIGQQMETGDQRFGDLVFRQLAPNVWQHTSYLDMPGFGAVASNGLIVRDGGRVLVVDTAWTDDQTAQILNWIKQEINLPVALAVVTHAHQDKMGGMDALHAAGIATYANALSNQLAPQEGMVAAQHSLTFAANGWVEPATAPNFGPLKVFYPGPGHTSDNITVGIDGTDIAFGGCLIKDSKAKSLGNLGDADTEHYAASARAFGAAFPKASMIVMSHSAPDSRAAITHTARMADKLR

[2] = molecular target: T1, Metallo-beta-lactamase type 2 (Bacteria, UniProt C7C422); experiment: Inhibition of NDM-1 (unknown origin) using nitrocefin as substrate assessed as residual activity preincubated for 15 mins followed by substrate addition by absorbance based assay
T1 sequence (C7C422 whole entry): as above

[3] = molecular target: T1, Metallo-beta-lactamase type 2; experiment: Inhibition of NDM-1 (unknown origin)
[4] = tested on: Klebsiella pneumoniae; experiment: Antibacterial activity against Klebsiella pneumoniae K-N-1 assessed as minimum bacteriostatic concentration incubated for 20 hrs; type: functional
[5] = tested on: Acinetobacter baumannii; experiment: Antibacterial activity against Acinetobacter baumannii aba assessed as minimum bacteriostatic concentration incubated for 20 hrs; type: functional
[6] = tested on: Escherichia coli; experiment: Antibacterial activity against Escherichia coli ZJ487 infected in BALB/c mouse assessed as reduction in bacterial count in liver at 10 mg/kg, sc administered at every 12 hr interval measured after 42 hrs; type: functional, organism-based
[7] = tested on: Escherichia coli; experiment: Antibacterial activity against Escherichia coli ZJ487 infected in BALB/c mouse assessed as reduction in bacterial count in spleen at 10 mg/kg, sc administered at every 12 hr interval measured after 42 hrs; type: functional, organism-based
[8] = molecular target: T1, Metallo-beta-lactamase type 2; experiment: Inhibition of C-terminal His-tagged NDM-1 (unknown origin) extracted from Escherichia coli BL21 (DE3) using fluorescent cephalosporin as substrate preincubated for 10 mins followed by substrate addition by fluorescence based assay
[9] = tested on: Escherichia coli; experiment: Antibacterial activity against Escherichia coli BL21 assessed as minimum bacteriostatic concentration incubated for 20 hrs; type: functional
[10] = tested on: Escherichia coli; experiment: Antibacterial activity against Escherichia coli ZJ487 assessed as minimum bacteriostatic concentration incubated for 20 hrs; type: functional
[11] = tested on: Escherichia coli; experiment: Synergistic antibacterial activity against Escherichia coli BL21 assessed as minimum bacteriostatic concentration of meropenem at 8 ug/ml incubated for 20 hrs; type: functional; details: dose 8 µg/ml
[12] = tested on: Klebsiella pneumoniae; experiment: Synergistic antibacterial activity against Klebsiella pneumoniae K-N-1 assessed as minimum bacteriostatic concentration of meropenem at 8 ug/ml incubated for 20 hrs; type: functional; details: dose 8 µg/ml
[13] = tested on: Acinetobacter baumannii; experiment: Synergistic antibacterial against Acinetobacter baumannii aba assessed as minimum bacteriostatic concentration of meropenem at 8 ug/ml incubated for 20 hrs; type: functional; details: dose 8 µg/ml
[14] = tested on: Escherichia coli; experiment: Synergistic antibacterial activity against Escherichia coli ZJ487 assessed as minimum bacteriostatic concentration of meropenem at 8 ug/ml incubated for 20 hrs; type: functional; details: dose 8 µg/ml
[15] = tested on: Escherichia coli; experiment: Synergistic antibacterial activity against Escherichia coli BL21 assessed as fractional inhibitory concentration index at 8 ug/ml incubated for 20 hrs in presence of meropenem; type: functional; details: dose 8 µg/ml
[16] = tested on: Klebsiella pneumoniae; experiment: Synergistic antibacterial activity against Klebsiella pneumoniae K-N-1 assessed as fractional inhibitory concentration index at 8 ug/ml incubated for 20 hrs in presence of meropenem; type: functional; details: dose 8 µg/ml
[17] = tested on: Acinetobacter baumannii; experiment: Synergistic antibacterial against Acinetobacter baumannii aba assessed as fractional inhibitory concentration index at 8 ug/ml incubated for 20 hrs in presence of meropenem; type: functional; details: dose 8 µg/ml
[18] = tested on: Escherichia coli; experiment: Synergistic antibacterial activity against Escherichia coli ZJ487 assessed as fractional inhibitory concentration index at 8 ug/ml incubated for 20 hrs in presence of meropenem; type: functional; details: dose 8 µg/ml
[19] = tested on: THP-1; experiment: Cytotoxicity against human THP-1 cells assessed as survival rate at 128 ug/ml incubated for 48 hrs by MTT assay; type: functional; details: read-out: Survival
[20] = Cytotoxicity against HEK293T cells assessed as survival rate at 128 ug/ml incubated for 48 hrs by MTT assay; type: toxicity, cell-based, HEK-293T; details: human, at 128 µg/mL, read-out: Survival
[21] = tested on: Escherichia coli; experiment: Synergistic antibacterial activity against Escherichia coli BL21 expressing NDM-1 assessed as fractional inhibitory concentration index upto 64 ug/ml incubated for 24 hrs in presence of meropenem by microdilution checkerboard analysis; type: functional; details: dose <= 64 µg/ml
[22] = tested on: Escherichia coli; experiment: Synergistic antibacterial activity against Escherichia coli ZJ487 assessed as fractional inhibitory concentration index upto 64 ug/ml incubated for 24 hrs in presence of meropenem by microdilution checkerboard analysis; type: functional; details: dose <= 64 µg/ml
[23] = tested on: Escherichia coli; experiment: Synergistic bactericidal activity against Escherichia coli BL21 expressing NDM-1 at 16 ug/ml incubated for 8 hrs in presence of meropenem; type: functional, organism-based; details: dose 16.0 µg/ml
[24] = Metabolic stability in rat plasma assessed as parent compound remaining measured after 48 hrs by HPLC analysis; type: ADME, cell-free; details: read-out: Stability
[25] = Metabolic stability in rat liver homogenate assessed as parent compound remaining measured after 48 hrs by HPLC analysis; type: ADME, tissue-based; details: read-out: Stability
[26] = tested on: Escherichia coli; experiment: Synergistic bactericidal activity against Escherichia coli ZJ487 at 16 ug/ml incubated for 8 hrs in presence of meropenem; type: functional, organism-based; details: dose 16.0 µg/ml
[27] = tested on: Escherichia coli; experiment: Synergistic antibacterial activity against Escherichia coli ZJ487 infected in BALB/c mouse assessed as reduction in bacterial count in liver at 10 mg/kg, sc administered at every 12 hr interval measured after 42 hrs in presence of meropenem; type: functional, organism-based
[28] = tested on: Escherichia coli; experiment: Synergistic antibacterial activity against Escherichia coli ZJ487 infected in BALB/c mouse assessed as reduction in bacterial count in spleen at 10 mg/kg, sc administered at every 12 hr interval measured after 42 hrs in presence of meropenem; type: functional, organism-based

## CC(=O)N[C@@H]1C(=O)N2C(C(=O)O)=C(C[Se]c3ccccc3C(=O)Nc3ccccc3)CS[C@H]12
[1]
  Activity: 88.2%

## O=C(O)C1=C(C[Se]c2ccccc2C(=O)Nc2ccccc2)CS[C@@H]2[C@H](NS(=O)(=O)c3ccccc3)C(=O)N12
[1]
  Activity: 48.4%

## O=c1c2ccccc2[se]n1-c1ccccc1 [EBSELEN]
[1]
  Activity: 8.05%
[2]
  IC50: 16 µM

## O=C(O)C1=C(C[Se]c2ccccc2C(=O)Nc2ccccc2)CS[C@@H]2[C@H](NS(=O)(=O)c3cccs3)C(=O)N12
[1]
  Activity: 51.6%

## O=C(O)C1=C(C[Se]c2ccccc2C(=O)Nc2ccccc2)CS[C@@H]2[C@H](NCc3cc(Cl)nc(Cl)c3)C(=O)N12
[1]
  Activity: 68.1%

## O=C(O)C1=C(C[Se]c2ccccc2C(=O)Nc2ccccc2)CS[C@@H]2[C@H](NCc3cc(F)cc(F)c3)C(=O)N12
[1]
  Activity: 41.1%

## O=C(Cc1ccccc1)N[C@@H]1C(=O)N2C(C(=O)O)=C(C[Se]c3ccccc3C(=O)Nc3ccccc3)CS[C@H]12
[1]
  Activity: 23.9%
[2]
  IC50: 90.3 µM

## O=C(O)C1=C(C[Se]c2ccccc2C(=O)Nc2ccccc2)CS[C@@H]2[C@H](NCc3cccs3)C(=O)N12
[1]
  Activity: 25.2%
[2]
  IC50: 52.9 µM

## CCN(CC)[C@@H]1C(=O)N2C(C(=O)O)=C(C[Se]c3ccccc3C(=O)Nc3ccccc3)CS[C@H]12
[1]
  Activity: 70.2%

## O=C(O)C1=C(C[Se]c2ccccc2C(=O)Nc2ccccc2)CS[C@@H]2[C@H](NCc3ccccc3)C(=O)N12
[1]
  Activity: 17.8%
[2]
  IC50: 37.8 µM

## O=C(O)C1=C(C[Se]c2ccccc2C(=O)Nc2ccccc2)CS[C@@H]2[C@H](NCC3CC3)C(=O)N12
[1]
  Activity: 78.2%

## O=C(O)C1=C(C[Se]c2ccccc2C(=O)Nc2ccccc2)CS[C@@H]2[C@H](NC(=O)C3CC3)C(=O)N12
[1]
  Activity: 47.3%
[2]
  IC50: 150 µM

## O=C(O)C1=C(C[Se]c2ccccc2C(=O)Nc2ccccc2)CS[C@@H]2[C@H](NCc3ccccc3Cl)C(=O)N12
[1]
  Activity: 66.2%

## COc1cc(CN[C@@H]2C(=O)N3C(C(=O)O)=C(C[Se]c4ccccc4C(=O)Nc4ccccc4)CS[C@H]23)cc(OC)c1
[1]
  Activity: 55.8%

## COc1cc(Cl)cc(CN[C@@H]2C(=O)N3C(C(=O)O)=C(C[Se]c4ccccc4C(=O)Nc4ccccc4)CS[C@H]23)c1
[1]
  Activity: 37.9%

## O=C(O)C1=C(C[Se]c2ccccc2C(=O)Nc2ccccc2)CS[C@@H]2[C@H](NS(=O)(=O)Cc3ccccc3)C(=O)N12
[1]
  Activity: 63.8%

## O=C(Cc1ccccc1)N[C@H]1C(=O)N2C(C(=O)O)=C(C[S+]([O-])CCC(=O)Oc3c(F)c(F)c(F)c(F)c3F)C[S+]([O-])[C@@H]12 (stereo not given in full)
[3]
  IC50: 0.39 µM

## O=C(O)C1=C(C[Se]c2ccccc2C(=O)Nc2ccccc2)CS[C@@H]2[C@H](NC(=O)n3cnnn3)C(=O)N12
[1]
  Activity: 72.9%

## O=C(O)C1=C(C[Se]c2ccccc2C(=O)Nc2ccccc2)CS[C@@H]2[C@H](NCc3cccc(Cl)c3)C(=O)N12
[1]
  Activity: 60.9%

## CCOC(=O)[C@]1(CS)C[C@H](C(=O)O)C(C)(C)S1
[3]
  IC50: 0.04 µM

## N#CCC(=O)N[C@@H]1C(=O)N2C(C(=O)O)=C(C[Se]c3ccccc3C(=O)Nc3ccccc3)CS[C@H]12
[1]
  Activity: 61.7%

## N#Cc1cc(Cl)cc(CN[C@@H]2C(=O)N3C(C(=O)O)=C(C[Se]c4ccccc4C(=O)Nc4ccccc4)CS[C@H]23)c1
[1]
  Activity: 42.3%

## CC1=C(C(=O)O)N2C(=O)[C@@H](NCc3cc(Cl)cc(Cl)c3)[C@H]2SC1
[1]
  Activity: 99.6%

## O=C(O)C1=C(C[Se]c2ccccc2C(=O)Nc2ccccc2)CS[C@@H]2[C@H](NCc3cc(F)cc(Cl)c3)C(=O)N12
[1]
  Activity: 27.8%
[2]
  IC50: 77.8 µM

## C[C@@H](O)[C@H]1C(=O)N2C(C(=O)O)=C(S[C@@H]3CN[C@H](C(=O)N(C)C)C3)[C@H](C)[C@H]12 [MEROPENEM]
[4]
  MIC: > 512 µg/mL
[5]
  MIC: > 512 µg/mL
[6]
  Activity: inactive
[7]
  Activity: inactive

## CS(=O)(=O)N[C@@H]1C(=O)N2C(C(=O)O)=C(C[Se]c3ccccc3C(=O)Nc3ccccc3)CS[C@H]12
[1]
  Activity: 48.9%
[2]
  IC50: 69.7 µM

## O=C(Cc1ccccc1)N[C@@H]1C(=O)N2C(C(=O)O)=C(CSc3cccc4cccnc34)CS[C@H]12
[8]
  IC50: 2.31 µM

## O=C(O)C1=C(C[Se]c2ccccc2C(=O)Nc2ccccc2)CS[C@@H]2[C@H](NCc3cc(C(F)(F)F)cc(C(F)(F)F)c3)C(=O)N12
[1]
  Activity: 61.6%

## O=C(O)C1=C(C[Se]c2ccccc2C(=O)Nc2ccccc2)CS[C@@H]2[C@H](NC(=O)c3cccs3)C(=O)N12
[1]
  Activity: 49.5%

## O=C(O)C1=C(C[Se]c2ccccc2C(=O)Nc2ccccc2)CS[C@@H]2[C@H](NCc3ccc(Cl)cc3)C(=O)N12
[1]
  Activity: 54%

## O=C(O)C1=C(C[Se]c2ccccc2C(=O)Nc2ccccc2)CS[C@@H]2[C@H](NS(=O)(=O)C3CC3)C(=O)N12
[1]
  Activity: 44.1%
[2]
  IC50: 114 µM

## O=c1c2ccccc2[se]n1-c1ncccc1-c1ccc(F)cc1
[3]
  IC50: 11.3 µM

## Cc1cc(Cl)cc(CN[C@@H]2C(=O)N3C(C(=O)O)=C(C[Se]c4ccccc4C(=O)Nc4ccccc4)CS[C@H]23)c1
[1]
  Activity: 30%
[2]
  IC50: 72.9 µM

## O=C(O)C1=C(C[Se]c2ccccc2C(=O)Nc2ccccc2)CS[C@@H]2[C@H](NCc3cc(Cl)cc(Cl)c3)C(=O)N12
[1]
  Activity: 6.53%
[2]
  IC50: 7.03 µM
[9]
  MIC: 128 µg/mL (≈ 198 µM)
[4]
  MIC: 64 µg/mL (≈ 98.9 µM)
[5]
  MIC: > 512 µg/mL
[10]
  MIC: 32 µg/mL (≈ 49.4 µM)
[11]
  MIC: 16 µg/mL
[12]
  MIC: 16 µg/mL
[13]
  MIC: 32 µg/mL
[14]
  MIC: 1 µg/mL
[15]
  fractional inhibitory concentration index (FICI): 0.141
[16]
  fractional inhibitory concentration index (FICI): 0.281
[17]
  fractional inhibitory concentration index (FICI): 0.078
[18]
  fractional inhibitory concentration index (FICI): 0.093
[19]
  viability at 128 µg/mL: > 100%
[20]
  viability at 48 h, 128 ug/ml: > 100%
[21]
  fractional inhibitory concentration index (FICI): 0.25
[22]
  fractional inhibitory concentration index (FICI): 0.125
[23]
  Activity: Not active; Compound Did Not Eradicate Bacteria Completely But Maintained A State Of Significantly Lower Level Compared To Meropenem Alone
[24]
  remaining at 48 h: > 80%
[25]
  remaining at 48 h: 59.3%
[26]
  Activity: Not active; Compound Did Not Eradicate Bacteria Completely But Maintained A State Of Significantly Lower Level Compared To Meropenem Alone
[6]
  Activity: inactive
[7]
  Activity: inactive
[27]
  Activity: Active
[28]
  Activity: Active

## O=C(O)C1=C(C[Se]c2ccccc2C(=O)Nc2ccccc2)CS[C@@H]2[C@H](NC(=O)c3ccccc3)C(=O)N12
[1]
  Activity: 22.3%
[2]
  IC50: 62.2 µM

## CC(C)(C)OC(=O)NCCCCCCn1[se]c2ccccc2c1=O
[3]
  IC50: 1.26 µM

## Cc1cc(C)cc(CN[C@@H]2C(=O)N3C(C(=O)O)=C(C[Se]c4ccccc4C(=O)Nc4ccccc4)CS[C@H]23)c1
[1]
  Activity: 69.3%
